These compounds were tested against T1, human HSL (Homo sapiens, UniProt Q05469) (assay: Human hormone-sensitive lipase (HSL) enzyme inhibition assay (colorimetric, DMPT substrate)). Conditions: human full length HSL-His6; 2,3-dimercapto-1-propanol tributyrate substrate; 37° C., 20 minutes; read-out: HSL hum IC50.
T1 construct: overlapping PCR to generate a full length human HSL ORF with a 3′-His6 tag; His6 (C); made in house; host or cells: High 5 insect cells (baculovirus, pFast-BAC)
T1 sequence (Q05469 1-1076): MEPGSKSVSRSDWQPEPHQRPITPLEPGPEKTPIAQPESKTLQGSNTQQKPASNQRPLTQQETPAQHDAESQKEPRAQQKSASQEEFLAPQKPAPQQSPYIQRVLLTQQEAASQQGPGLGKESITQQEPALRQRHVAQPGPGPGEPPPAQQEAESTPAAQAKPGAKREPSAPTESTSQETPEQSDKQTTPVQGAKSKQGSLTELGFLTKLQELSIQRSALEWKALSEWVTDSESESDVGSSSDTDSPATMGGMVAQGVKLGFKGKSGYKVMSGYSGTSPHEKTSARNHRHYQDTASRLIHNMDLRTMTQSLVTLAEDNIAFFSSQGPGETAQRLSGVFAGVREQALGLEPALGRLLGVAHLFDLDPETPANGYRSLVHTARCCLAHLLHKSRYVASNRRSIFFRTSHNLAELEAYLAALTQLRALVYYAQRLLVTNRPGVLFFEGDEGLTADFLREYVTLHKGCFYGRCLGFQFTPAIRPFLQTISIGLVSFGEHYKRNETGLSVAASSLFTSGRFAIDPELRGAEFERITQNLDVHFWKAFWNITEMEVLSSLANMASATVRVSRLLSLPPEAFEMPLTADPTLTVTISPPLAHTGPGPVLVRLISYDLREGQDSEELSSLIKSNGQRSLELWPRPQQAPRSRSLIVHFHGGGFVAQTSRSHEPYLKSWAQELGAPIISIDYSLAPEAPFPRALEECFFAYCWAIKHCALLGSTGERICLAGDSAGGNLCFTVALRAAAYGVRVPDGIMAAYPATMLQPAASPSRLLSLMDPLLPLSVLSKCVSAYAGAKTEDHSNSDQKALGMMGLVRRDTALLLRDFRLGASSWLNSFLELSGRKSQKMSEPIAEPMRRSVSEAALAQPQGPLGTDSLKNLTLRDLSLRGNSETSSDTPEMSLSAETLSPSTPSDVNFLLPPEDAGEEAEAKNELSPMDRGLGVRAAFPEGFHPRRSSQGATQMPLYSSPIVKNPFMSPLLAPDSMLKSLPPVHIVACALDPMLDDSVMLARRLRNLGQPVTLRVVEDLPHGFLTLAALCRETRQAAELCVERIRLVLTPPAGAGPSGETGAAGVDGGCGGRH
Format: biochemical
Protocol: Production of Human Full Length Hormone Sensitive Lipase-His^6:
1) Cloning: cDNA was prepared from commercial human brain polyA+ RNA and used as a template in overlapping PCR to generate a full length human HSL ORF with a 3′-His6 tag. This full length insert was cloned into the pFast-BAC vector and the DNA-sequence of several single clones was verified. DNA from a correct full length clone with the 3′His6 tag was used to transform the E. coli strain DH10BAC. Resulting bacmid DNA was used to generate a titered baculovirus stock for protein generation. The sequence of the encoded HSL conforms to Swissprot entry Q05469, with the additional C-terminal His6-tag.
2) Protein purification: Culture: 5.5 L, High 5 cells expressing human full length HSL-His^6, 48 hr., containing 25 μM E-64. Cell count: […], 90% viable. Cells were thawed. On ice, cells were suspended in Base Buffer containing 10% glycerol, 25 mM Tris-Cl, 300 mM NaCl, 10 mM imidazole, 10 mM 2-mercaptoethanol, 2 μg pepstatin/ml, 2 μg leupeptin/ml, 2 μg antipain/ml, pH 8.0 at 4° C. in a final volume of 475 ml with 3.75×10^7 cells/ml. […] was done at 3×30 sec., Lubrol PX was added to 0.2% final concentration followed by stirring for 15 min. at 4° C. and centrifugation at 25 k×g, 60 min., 4° C. Soluble proteins were mixed with 60 ml of pre-washed and equilibrated Ni-NTA Agarose (Qiagen 30210) followed by tumbling end-over-end, 45 min., 4° C., centrifugation 1000 rpm 5 min and letting resin settle 5 min. Supernatant was removed, the resin washed in the centrifuge vessel using 5 volumes of Base Buffer containing 0.2% Lubrol PX. Centrifugation was done again, then the supernatant discarded. The resin was poured onto a 0.8 μm membrane in a disposable filter unit (Nalge 450-0080), and washed with 5 volumes of Base Buffer containing 0.2% Lubrol PX. It was then washed with 30 volumes of Base Buffer containing 60 mM imidazole pH 7.5 at 4° C. The protein was eluated with 5 volumes of 25 mM Tris-Cl, 300 mM NaCl, 200 mM imidazole, 10 mM 2-mercaptoethanol, pH 7.5 at 4° C. by tumbling resin with buffer end-over-end, 30 min., 4° C. The resin was captured on a 0.2 μm membrane disposable filter unit (Millipore SCGP U02 RE) and the eluate collected in the reservoir. The eluate was concentrated using a 30 k MWCO centrifugal filter device (Sartorius Vivascience Vivacell 100, VC1022), to 20 ml. It was then dialyzed overnight at 4° C., two times against 2 L of 10% glycerol, 25 mM Tris-Cl, 300 mM NaCl, 0.2 mM EDTA, 0.2 mM DTT, pH 7.5 at 4° C. The protein was filtered using a 0.22 μm disposable filter unit (Millipore SCGP00525). The protein concentration was calculated from absorbance at 280 nm, using 280=0.67 cm-1 mg-1. Yield was 235 mg, total. The protein was stored at −80° C.
Human Hormone-Sensitive Lipase (HSL) Enzyme Inhibition Assay:
HSL enzyme activity was measured by a colorimetric assay using 2,3-dimercapto-1-propanol tributyrate (Aldrich, St. Louis, Mo.) as a substrate. Typically, 1.5 mM 2,3-dimercapto-1-propanol tributyrate (DMPT) in 100 mM MOPS, pH 7.2, 0.2 mg/ml fatty acid-free BSA was prepared by sonication at 4° C. to homogenous suspension. Test compounds (2 mM stock in DMSO) were diluted 3 fold in series in DMSO. Compound solutions were diluted 24 fold in 1.5 mM DMPT containing solution and 18 ul per well was added to 384-well microplates (Corning Costar). Twelve microliters per well of human HSL (15 ug/ml) was added and the reaction mixture was incubated at 37° C. for 20 minutes. Six microliters of 12 mM dithio-bis-(2-nitrobenzoic acid) (DTNB) in DMSO plus 1.2% SDS and 0.6% Triton X-100 were added and the mixture was incubated at room temperature for 15 minutes. Product production was monitored by reading absorbance at 405 nm on an Envision Reader (PerkinElmer Life and Analytical Sciences, Shelton, Conn.).

Row | SMILES | IC50
1 | CCN(C(=O)C1CCN(S(=O)(=O)c2ccc(C)cc2)CC1)c1ccc(OC(C)C(F)(F)F)cc1 (racemic) [Example 4, (rac)-1-(Toluene-4-sulfonyl)-piperidine-4-carboxylic acid ethyl-[4-(2,2,2-trifluoro-1-methyl-ethoxy)-phenyl]-amide] | 3000 nM
2 | Cc1ccc(S(=O)(=O)N2CCC(C(=O)N(C)c3ccc(OC(C)C(F)(F)F)cc3)CC2)cc1 (racemic) [Example 5, (rac)-1-(Toluene-4-sulfonyl)-piperidine-4-carboxylic acid methyl-[4-(2,2,2-trifluoro-1-methyl-ethoxy)-phenyl]-amide] | 120 nM
3 | Cc1ccc(S(=O)(=O)N2CCC(C(=O)Nc3ccc(OC(C)C(F)(F)F)nc3)CC2)cc1 (racemic) [Example 6, (rac)-1-(Toluene-4-sulfonyl)-piperidine-4-carboxylic acid [6-(2,2,2-trifluoro-1-methyl-ethoxy)-pyridin-3-yl]-amide] | 120 nM
4 | CC(Oc1ccc(NC(=O)C2(CO)CCN(S(=O)(=O)c3ccccc3Cl)CC2)cc1)C(F)(F)F (racemic) [Example 24, 1-(2-Chloro-benzenesulfonyl)-4-hydroxymethyl-piperidine-4-carboxylic acid [4-(2,2,2-trifluoro-1-methyl-ethoxy)-phenyl]-amide] | 1140 nM
5 | CC(Oc1ccc(NC(=O)C2(CO)CCN(S(=O)(=O)c3ccccc3)CC2)cc1)C(F)(F)F (racemic) [Example 27, (rac)-1-Benzenesulfonyl-4-hydroxymethyl-piperidine-4-carboxylic acid [4-(2,2,2-trifluoro-1-methyl-ethoxy)-phenyl]-amide] | 950 nM
6 | Cc1ccc(S(=O)(=O)N2CCC(F)(C(=O)Nc3ccc(OC(C)C(F)(F)F)cc3)CC2)cc1 (racemic) [Example 32, (rac-4-Fluoro-1-(toluene-4-sulfonyl)-piperidine-4-carboxylic acid [4-(2,2,2-trifluoro-1-methyl-ethoxy)-phenyl]-amide] | 920 nM
7 | Cc1ccc(S(=O)(=O)N2CCC(C)(C(=O)Nc3ccc(OC(C)C(F)(F)F)cc3)CC2)cc1 (racemic) [Example 43, (rac)-4-Methyl-1-(toluene-4-sulfonyl)-piperidine-4-carboxylic acid [4-(2,2,2-trifluoro-1-methyl-ethoxy)-phenyl]-amide] | 810 nM

Compounds with a lower IC50, results first:

Row | IC50 | SMILES
8 | 80 nM | CN(C(=O)[C@H]1CCN(S(=O)(=O)c2ccccc2Cl)[C@H](CO)C1)c1ccc(OC(F)(F)F)cc1 (racemic) [Example 11, (2S,4S)-1-(2-Chloro-benzenesulfonyl)-2-hydroxymethyl-piperidine-4-carboxylic acid methyl-(4-trifluoromethoxy-phenyl)-amide and (2R,4R)-1-(2-Chloro-benzenesulfonyl)-2-hydroxymethyl-piperidine-4-carboxylic acid methyl-(4-trifluoromethoxy-phenyl)-amide]
9 | 110 nM | COC[C@@H]1C[C@@H](C(=O)Nc2ccc(OC(F)(F)F)cc2)CCN1S(=O)(=O)c1ccc(C)cc1 (racemic) [Example 23, Racemic Mixture of Example 23a which is (2S,4S)-2-Methoxymethyl-1-(toluene-4-sulfonyl)-piperidine-4-carboxylic acid (4-trifluoromethoxy-phenyl)-amide and Example 23b which is (2R,4R)-2-Methoxymethyl-1-(toluene-4-sulfonyl)-piperidine-4-carboxylic acid (4-trifluoromethoxy-phenyl)-amide]
10 | 90 nM | Cc1ccc(S(=O)(=O)N2CCC(C(=O)Nc3ccc(OC(C)C(F)(F)F)cc3)CC2)cc1 (racemic) [Example 25, (rac)-1-(toluene-4-sulfonyl)-piperidine-4-carboxylic acid [4-(2,2,2-trifluoro-1-methyl-ethoxy)-phenyl]-amide]
11 | 90 nM | Cc1ccc(S(=O)(=O)N2CCC(C(=O)Nc3ccc(OC(C)C4CC4)cc3)CC2)cc1 (racemic) [Example 34, (rac)-1-(Toluene-4-sulfonyl)-piperidine-4-carboxylic acid [4-(1-cyclopropyl-ethoxy)-phenyl]-amide]
12 | 50 nM | O=C(Nc1ccc(OC(F)(F)F)cc1)[C@H]1CCN(S(=O)(=O)c2ccccc2Cl)[C@H](CO)C1 (racemic) [Example 36, (2S,4S)-1-(2-Chloro-benzenesulfonyl)-2-hydroxymethyl-piperidine-4-carboxylic acid (4-trifluoromethoxy-phenyl)-amide and (2R,4R)-1-(2-Chloro-benzenesulfonyl)-2-hydroxymethyl-piperidine-4-carboxylic acid (4-trifluoromethoxy-phenyl)-amide]
13 | 70 nM | CC(Oc1ccc(NC(=O)C2CCN(S(=O)(=O)c3ccccc3Cl)CC2)cc1)C(F)(F)F (racemic) [Example 40, (rac)-1-(2-Chloro-benzenesulfonyl)-piperidine-4-carboxylic acid [4-(2,2,2-trifluoro-1-methyl-ethoxy)-phenyl]-amide]
14 | 40 nM | Cc1ccc(S(=O)(=O)N2CC[C@H](C(=O)Nc3ccc(OC(F)(F)F)cc3)C[C@H]2CO)cc1 (racemic) [Example 42, (2S,4S)-2-Hydroxymethyl-1-(toluene-4-sulfonyl)-piperidine-4-carboxylic acid (4-trifluoromethoxy-phenyl)-amide and (2R,4R)-2-Hydroxymethyl-1-(toluene-4-sulfonyl)-piperidine-4-carboxylic acid (4-trifluoromethoxy-phenyl)-amide]

From patent US8258158B2 (Hoffmann-La Roche Inc., priority 2009, dated 2012)
